Measurements from patent US9273092B2, “Selective binding compounds” (RIOGIN Corporation, priority 2011, dated 2016).

Target: hSA (Homo sapiens, UniProt P02768)
Assay: hSA binding assay (hSA-coated microtiter plate, streptavidin-polyHRP/ABTS, OD 405 nm)
Details: for Bmax: given only for compounds with an Exp 2 value
Description: hSA binding assay. Microtiter 96 well plate is coated, overnight at 4° C., using […] of a solution of hSA in PBS ([…]). Plate is washed with PBS and blocked, for 1 hours, using 150 ml, per well, of a 10% solution of Tween 20 in water. After 1 hour the wells are washed with PBS. The hSA binders tested are dissolved in PBS, 100 ml of the tested solutions are then added in the well and incubated for 2 hours. After 2 hours, the solution are discarded and the wells are washed using PBS, 0.1% Tween 20. 100 ml of a solution of streptavidin-polyHRP in PBS 1.375% casein is added to the wells and incubated for 1 more hours. Finally wells are washed with PBS, 0.1% Tween 20, and 100 ml ABTS in phosphate-citrate buffer with sodium perborate is added. After a few minutes OD are read at 405 nm.
A plurality of compounds according to the invention were prepared. All of the compounds contained the Cys-Pro-Cys moiety. These compounds and an assay control were tested using the above procedure. Some compounds were tested twice (Exp 1 and Exp 2).

hSA, sequence (P02768 25-609): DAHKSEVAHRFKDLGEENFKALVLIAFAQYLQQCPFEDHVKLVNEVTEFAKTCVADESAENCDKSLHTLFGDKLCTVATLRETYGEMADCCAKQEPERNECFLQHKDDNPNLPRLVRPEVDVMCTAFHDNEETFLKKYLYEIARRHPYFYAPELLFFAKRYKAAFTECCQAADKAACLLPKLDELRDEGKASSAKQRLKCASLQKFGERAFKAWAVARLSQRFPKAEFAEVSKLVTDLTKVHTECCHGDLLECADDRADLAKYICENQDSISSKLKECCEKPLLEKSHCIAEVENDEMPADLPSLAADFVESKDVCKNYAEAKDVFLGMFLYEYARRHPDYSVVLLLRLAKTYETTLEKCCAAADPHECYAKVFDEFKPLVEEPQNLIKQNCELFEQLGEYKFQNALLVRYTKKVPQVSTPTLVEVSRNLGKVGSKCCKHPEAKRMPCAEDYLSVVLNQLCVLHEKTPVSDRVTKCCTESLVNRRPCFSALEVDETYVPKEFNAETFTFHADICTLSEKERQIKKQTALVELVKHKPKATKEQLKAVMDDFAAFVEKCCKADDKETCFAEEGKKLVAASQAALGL

| Binding, Exp 2 | Bmax | Binding, Exp 1 | Sequence |
| --- | --- | --- | --- |
| 0.2342 | 0.8075 | 1.415 | KIIEDICPCLW [Compound 62, KIIEDI-LW, "-" represents cysteine-proline-cysteine] |
| 0.1074 | 1.077 | 0.2126 | KLIADICPCLW [Compound 46, KLIADI-LW, "-" represents cysteine-proline-cysteine] |
|  |  | 0.1836 | KLIEDFCPCLW [Compound 44, KLIEDF-LW, "-" represents cysteine-proline-cysteine] |
|  |  | 0.08281 | KLIEDICPCAW [Compound 25, KLIEDI-AW, "-" represents cysteine-proline-cysteine] |
|  |  | 0.07161 | KLIEDICPCLH [Compound 23, KLIEDI-LH, "-" represents cysteine-proline-cysteine] |
|  |  | 0.06947 | KLIEDICPCLK [Compound 21, KLIEDI-LK, "-" represents cysteine-proline-cysteine] |
|  |  | 0.08742 | KLIEDICPCLW [Compound 26, KLIEDI-LW, "-" represents cysteine-proline-cysteine] |
|  |  | 0.2445 | KLIEDICPCQW [Compound 48, KLIEDI-QW, "-" represents cysteine-proline-cysteine] |
|  |  | 0.1327 | KLIEDICPCTW [Compound 35, KLIEDI-TW, "-" represents cysteine-proline-cysteine] |
|  |  | 0.05545 | KLIEDICPCVW [Compound 15, KLIEDI-VW, "-" represents cysteine-proline-cysteine] |
|  |  | 0.3109 | KLIEYICPCLW [Compound 53, KLIEYI-LW, "-" represents cysteine-proline-cysteine] |
| 0.1771 | 1.048 | 0.3066 | KLIQDICPCLW [Compound 51, KLIQDI-LW, "-" represents cysteine-proline-cysteine] |
|  |  | 0.02504 | KLISDICPCLW [Compound 3, KLISDI-LW, "-" represents cysteine-proline-cysteine] |
| 0.2479 | 0.8746 |  | REIEDICPCLW [Compound 96, REIEDI-LW, "-" represents cysteine-proline-cysteine] |
| 0.1166 | 0.6826 | 0.1632 | RIIEDICPCLW [Compound 40, RIIEDI-LW, "-" represents cysteine-proline-cysteine] |
|  |  | 1.031 | RLIEDICPCAW [Compound 59, RLIEDI-AW, "-" represents cysteine-proline-cysteine] |

Further lines, the sequence ahead of its results:

| Sequence | Binding, Exp 2 | Bmax | Binding, Exp 1 |
| --- | --- | --- | --- |
| KEIEDICPCLW [Compound 93, KEIEDI-LW, "-" represents cysteine-proline-cysteine] | 0.257 | 1.425 |  |
| KFIEDICPCLW [Compound 13, KFIEDI-LW, "-" represents cysteine-proline-cysteine] | 0.4961 | 1.198 | 0.04979 |
| KLFEDICPCLW [Compound 33, KLFEDI-LW, "-" represents cysteine-proline-cysteine] |  |  | 0.1213 |
| KLIDDICPCLW [Compound 34, KLIDDI-LW, "-" represents cysteine-proline-cysteine] |  |  | 0.1237 |
| KLIEDACPCLW [Compound 39, KLIEDA-LW, "-" represents cysteine-proline-cysteine] |  |  | 0.153 |
| KLIEDECPCLW [Compound 11, KLIEDE-LW, "-" represents cysteine-proline-cysteine] |  |  | 0.04808 |
| KLIEDICPCFW [Compound 30, KLIEDI-FW, "-" represents cysteine-proline-cysteine] |  |  | 0.1033 |
| KLIEDICPCLE [Compound 49, KLIEDI-LE, "-" represents cysteine-proline-cysteine] |  |  | 0.2709 |
| KLIEDICPCLQ [Compound 42, KLIEDI-LQ, "-" represents cysteine-proline-cysteine] |  |  | 0.1651 |
| KLIEDQCPCLW [Compound 55, KLIEDQ-LW, "-" represents cysteine-proline-cysteine] |  |  | 0.5209 |
| KLIEDVCPCLW [Compound 56, KLIEDV-LW, "-" represents cysteine-proline-cysteine] |  |  | 0.5311 |
| KLIEEICPCLW [Compound 28, KLIEEI-LW, "-" represents cysteine-proline-cysteine] |  |  | 0.09642 |
| KLIEVICPCLW [Compound 5, KLIEVI-LW, "-" represents cysteine-proline-cysteine] |  |  | 0.03868 |
| KLIVDICPCLW [Compound 95, KLIVDI-LW, "-" represents cysteine-proline-cysteine] | 0.1395 | 1.19 |  |
| KLIYDICPCLW [Compound 29, KLIYDI-LW, "-" represents cysteine-proline-cysteine] | 0.09262 | 0.7912 | 0.1014 |
| KLLEDICPCLW [Compound 9, KLLEDI-LW, "-" represents cysteine-proline-cysteine] |  |  | 0.04197 |
| KLQEDICPCLW [Compound 31, KLQEDI-LW, "-" represents cysteine-proline-cysteine] |  |  | 0.1033 |

| Sequence | Binding, Exp 2 | Bmax | Binding, Exp 1 |
| --- | --- | --- | --- |
| KLTEDICPCLW [Compound 24, KLTEDI-LW, "-" represents cysteine-proline-cysteine] |  |  | 0.07352 |
| KLVEDICPCLW [Compound 41, KLVEDI-LW, "-" represents cysteine-proline-cysteine] |  |  | 0.1635 |
| KQIEDICPCLW [Compound 47, KQIEDI-LW, "-" represents cysteine-proline-cysteine] | 0.581 | 1.4 | 0.2411 |
| KTIEDICPCLW [Compound 22, KTIEDI-LW, "-" represents cysteine-proline-cysteine] | 0.1476 | 1.427 | 0.06947 |
| KVIEDICPCLW [Compound 64, KVIEDI-LW, "-" represents cysteine-proline-cysteine] | 0.1137 | 0.3906 | 2.575 |
| LKIKDICPCLW [Compound 94, LKIKDI-LW, "-" represents cysteine-proline-cysteine] | 0.2987 | 1.253 |  |
| RFIEDICPCLW [Compound 8, RFIEDI-LW, "-" represents cysteine-proline-cysteine] | 0.1971 | 1.136 | 0.04142 |
| RLEEDICPCLW [Compound 17, RLEEDI-LW, "-" represents cysteine-proline-cysteine] |  |  | 0.0625 |
| RLIADICPCLW [Compound 4, RLIADI-LW, "-" represents cysteine-proline-cysteine] | 0.1216 | 1.036 | 0.03473 |
| RLIDDICPCLW [Compound 6, RLIDDI-LW, "-" represents cysteine-proline-cysteine] | 0.2179 | 1.256 | 0.03897 |
| RLIEDACPCLW [Compound 38, RLIEDA-LW, "-" represents cysteine-proline-cysteine] |  |  | 0.1522 |
| RLIEDECPCLW [Compound 58, RLIEDE-LW, "-" represents cysteine-proline-cysteine] |  |  | 0.8196 |
| RLIEDICPCFW [Compound 10, RLIEDI-FW, "-" represents cysteine-proline-cysteine] |  |  | 0.04544 |
| RLIEDICPCLH [Compound 63, RLIEDI-LH, "-" represents cysteine-proline-cysteine] |  |  | 1.877 |
| RLIEDICPCLK [Compound 66, RLIEDI-LK, "-" represents cysteine-proline-cysteine] |  |  | 6.227 |
| RLIEDICPCLQ [Compound 65, RLIEDI-LQ, "-" represents cysteine-proline-cysteine] |  |  | 5.789 |
| RLIEDICPCLV [Compound 43, RLIEDI-LV, "-" represents cysteine-proline-cysteine] |  |  | 0.1701 |
